For data set [1], the target named is prostate-specific membrane antigen (PSMA) (Homo sapiens, UniProt Q04609). As to the kind of experiment: Binding affinities of the representative agents (PSMA).
A further data set can be described thus: LogP octanol/water. The data set is classed as physicochemical.
Another data set concerns PSMA+ PC3 PIP cells. As to the kind of experiment: Cell binding, uptake and internalization in PSMA+ PC3 PIP cells. Format: cell-based.
Data set [2] deals with PSMA-negative PC3 flu cells. As to the kind of experiment: Cell uptake in PSMA-negative PC3 flu cells. The data set is classed as cell-based. The settings on record: 4 h incubation, n = 3.

Chain of prostate-specific membrane antigen (PSMA) (Q04609 whole entry): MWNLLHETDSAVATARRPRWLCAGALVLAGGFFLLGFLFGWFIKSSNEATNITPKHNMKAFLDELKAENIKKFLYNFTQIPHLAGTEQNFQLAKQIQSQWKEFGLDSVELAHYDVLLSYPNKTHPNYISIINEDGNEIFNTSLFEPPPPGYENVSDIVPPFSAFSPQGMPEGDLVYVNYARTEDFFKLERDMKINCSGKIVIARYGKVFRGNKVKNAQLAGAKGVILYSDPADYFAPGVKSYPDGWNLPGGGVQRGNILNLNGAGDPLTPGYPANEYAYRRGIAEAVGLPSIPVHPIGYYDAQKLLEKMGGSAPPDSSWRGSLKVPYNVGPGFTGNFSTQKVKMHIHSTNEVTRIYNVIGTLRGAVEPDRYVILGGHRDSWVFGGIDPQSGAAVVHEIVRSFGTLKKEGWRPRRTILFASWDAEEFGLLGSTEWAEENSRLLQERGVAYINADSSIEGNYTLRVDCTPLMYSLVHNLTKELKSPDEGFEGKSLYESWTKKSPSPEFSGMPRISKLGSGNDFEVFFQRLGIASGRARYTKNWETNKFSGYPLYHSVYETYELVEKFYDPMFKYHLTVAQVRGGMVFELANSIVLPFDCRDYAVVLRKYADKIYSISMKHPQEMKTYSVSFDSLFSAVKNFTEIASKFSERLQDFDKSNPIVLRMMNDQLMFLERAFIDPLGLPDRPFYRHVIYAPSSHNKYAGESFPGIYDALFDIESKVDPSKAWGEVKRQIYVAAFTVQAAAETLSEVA

In general, IC50 refers to the concentration needed to halve the response being measured. A low value points to inhibition by little substance. One may read the Ki as the equilibrium dissociation constant of an inhibitor or competing ligand from its target. High values mean lower affinity, low ones higher affinity. Regarding `O=C(O)CC[C@H](NC(=O)N[C@@H](CCCCNC(=O)CCCCNC(=S)Nc1ccc(CC2CN(CC(=O)O)CCN(CC(=O)O)CCN(CC(=O)O)CCN2CC(=O)O)cc1)C(=O)O)C(=O)O` (stereo partly drawn) [Compound 3], in data set [1], the IC50 was 2.16 nM and affinity was put at a Ki of 0.43 nM. The LogPoct/water in “LogP octanol/water” is given as −3.2.
For `O=C([O-])CN1CCN(CC(=O)[O-])CCN(CC(=O)O)C(Cc2ccc(NC(=S)NCCCCC(=O)NCCCC[C@H](NC(=O)N[C@@H](CCC(=O)O)C(=O)O)C(=O)O)cc2)CN(CC(=O)[O-])CC1.[177Lu+3]` (stereo partly drawn) [^177Lu-3], in the data set on PSMA+ PC3 PIP cells (4 h incubation, n = 3), the Cell surface was 12.50 percent incubated dose per one million cells, the “Cell uptake PSMA + PC3 PIP” value is 24.50 percent incubated dose per one million cells and the “Internalization (cell lysate)” value was 8.75 percent incubated dose per one million cells. Also, the “Cell uptake PSMA − PC3 flu” value in data set [2] was 0.05 percent incubated dose per one million cells.
Turning to `O=C(O)CC[C@H](NC(=O)N[C@@H](CCCCN(Cc1ccc(Br)cc1)C(=O)CCCCNC(=S)Nc1ccc(CC2CN(CC(=O)O)CCN(CC(=O)O)CCN(CC(=O)O)CCN2CC(=O)O)cc1)C(=O)O)C(=O)O` (stereo partly drawn) [Compound 1], in data set [1], the IC50 was determined as 0.57 nM, the Ki came out at 1.15 nM and the “binding affinity for PSMA (in words)” value is listed as “higher binding affinity compared to 3”. In addition, the LogPoct/water in “LogP octanol/water” is reported as −3.0.
For `O=C(O)CC[C@H](NC(=O)N[C@@H](CCCCN(Cc1ccc(Br)cc1)C(=O)CCCCNC(=O)CN1CCN(CC(=O)O)CCN(CC(=O)O)CCN(CC(=O)O)CC1)C(=O)O)C(=O)O` [Compound 2], in data set [1], the IC50 is 0.64 nM, the affinity corresponds to a Ki of 1.28 nM and the “binding affinity for PSMA (in words)” value is recorded as “higher binding affinity compared to 3”. In addition, in “LogP octanol/water”, the LogPoct/water is −3.53.
With `O=C([O-])CN1CCN(CC(=O)[O-])CCN(CC(=O)NCCCCC(=O)N(CCCC[C@H](NC(=O)N[C@@H](CCC(=O)O)C(=O)O)C(=O)O)Cc2ccc(Br)cc2)CCN(CC(=O)[O-])CC1.[177Lu+3]` [^177Lu-2], the “Cell uptake PSMA + PC3 PIP” value in the data set with PSMA+ PC3 PIP cells (4 h incubation, n = 3) was 40.6 percent incubated dose per one million cells. In addition, the “uptake in PSMA+ PC3 cells (in words)” value in the data set with PSMA+ PC3 PIP cells (compared to ^177Lu-3) is “higher uptake in PSMA+ PC3 cells compared to ^177Lu-3”. The “Cell uptake PSMA − PC3 flu” value in data set [2] is reported as 0.12 percent incubated dose per one million cells.

Values taken from US11458213B2, “Prostate-specific membrane antigen targeted high-affinity agents for endoradiotherapy of prostate cancer” (THE JOHNS HOPKINS UNIVERSITY, priority 2016, dated 2022).
